This is an account of results in patent US5631401A, “Inhibitors of protein farnesyltransferase and squalene synthase” (Abbott Laboratories, priority 1995, dated 1997).

The target of assay [1] is T1, Rat liver microsomal squalene synthase (Rattus norvegicus, UniProt Q02769).
T1 construct: Rat liver microsomes, the source of enzyme, were prepared; from tissue; host or cells: rat liver microsomes
T1 sequence (Q02769 1-416): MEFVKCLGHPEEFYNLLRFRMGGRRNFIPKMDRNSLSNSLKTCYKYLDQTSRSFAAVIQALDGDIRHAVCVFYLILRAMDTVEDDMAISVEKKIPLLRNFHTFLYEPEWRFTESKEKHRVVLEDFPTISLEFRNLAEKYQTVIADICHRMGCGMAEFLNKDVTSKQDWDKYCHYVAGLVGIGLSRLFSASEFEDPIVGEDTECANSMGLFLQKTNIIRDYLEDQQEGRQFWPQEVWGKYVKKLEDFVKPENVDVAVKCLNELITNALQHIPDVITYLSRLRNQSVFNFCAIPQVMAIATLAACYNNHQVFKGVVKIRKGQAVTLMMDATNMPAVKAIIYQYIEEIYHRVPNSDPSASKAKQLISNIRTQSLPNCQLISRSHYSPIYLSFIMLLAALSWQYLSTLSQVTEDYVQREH
Kind of assay: In vitro inhibition of squalene synthase (rat liver microsomes, 3H-farnesyl diphosphate). Format: biochemical. The settings on record: 1 μM; compared to controls with no test compound. As to the method:
In vitro inhibition of squalene synthase may be measured by the following procedure.
Rat liver microsomal squalene synthase activity was measured using radioactive farnesyl diphosphate as a substrate and quantitating squalene synthesis by counting the radioactive squalene formed.
Rat liver microsomes, the source of enzyme, were prepared according to the method of Gillies, P. J., et al., Exp. Molec. Pathol. 44: 329-339 (1986), a modification of the procedure of Erickson, S. K., and Cooper, A. D., Metabolism, 29: 991-996 (1980). Approximately 30 μg of microsomal protein was incubated for 10 minutes at 37° C. with 11 μM of ^3 H-farnesyl diphosphate, 49 mCi/mmol, and test compound in the presence of squalene (2 μL), Mg^++, KF, reduced B-nicotinamide adenine dinucleotide phosphate, dithiothreitol, and K2 PO4, pH 7.35, in a total volume of 200 μL. Oxygen was excluded from the closed incubation tube by degassing with nitrogen. The reaction was terminated by the addition of ethanolic KOH and after degassing with N2, the microsomal membranes were solubilized by heating at 60° C. for 30 minutes. The squalene was extracted into hexane, and the squalene was separated from all other radioactive molecules by passage over an activated alumina column. The solution was collected in scintillation vials, evaporated to dryness, liquid scintillation fluid was added, and the radioactivity was determined in a liquid scintillation counter. […]

For assay [2], the target named is T2, Rat brain protein farnesyltransferase (Rattus norvegicus, UniProt Q02293+Q04631).
T2 construct: The enzyme was purified according to Reiss, Y., et al., Cell, 62: 81-88 (1990), utilizing steps one through three; from tissue; host or cells: rat brain
The assay can be described thus: In vitro inhibition of protein farnesyltransferase (biotin-lamin substrate, scintillation proximity assay). It counts as biochemical. The settings on record: for inhibition at 10 µM: compared to uninhibited control; for inhibition at 1 µM: 1 μM (footnote *), read-out: % Inhibition at 1 μM (protein farnesyltransferase, values marked *). In a few lines: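 Protein farnesyltransferase isolated from rat brain was purified following steps one through three of the Reiss et al. method, giving a specific activity of about 10 nmol substrate farnesylated/mg enzyme/hour. Activity was measured with a commercial Amersham scintillation proximity assay kit, using biotin-lamin as the acceptor substrate and radioactive farnesyl diphosphate as the donor.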
In general terms: Scintillation proximity formats need no separation of bound from free tracer.

For `CCCN(Cc1ccc(Oc2ccccc2)c(C)c1)C(=O)C1C(C(=O)O)C(C(=O)N(CCC)Cc2ccc(Oc3ccccc3)c(C)c2)C1C(=O)O` (stereo not drawn) [Example 59, (1α,2β,3β,4α)-1,3-Di{N-propyl-N-[(3-methyl-4-phenoxy)benzyl]aminocarbonyl}cyclobutane-2,4-dicarboxylic acid], 1 µM produced 46% inhibition in assay [1]. In addition, 10 µM produced 54% inhibition in assay [2].
With `CCCN(Cc1ccc(Nc2ccccc2)cc1)C(=O)[C@H]1[C@H](C(=O)O)[C@H](C(=O)N(CCC)Cc2ccc(Nc3ccccc3)cc2)[C@H]1C(=O)O` [Example 63], the inhibition (as a rule, the change of the read-out against control, counted positive when it falls) at 1 µM in assay [1] was 44%. The same compound yielded an inhibition at 10 µM in assay [2] of 68%.
On the same counts, the results for `CCCN(Cc1ccc(Sc2ccccc2)cc1)C(=O)C1C(C(=O)O)C(C(=O)N(CCC)Cc2ccc(Sc3ccccc3)cc2)C1C(=O)O` (stereo not shown) [Example 64] are 33% and 64%.
As to `CCCN(CCc1ccc(Oc2ccccc2)cc1)C(=O)C1C(C(=O)O)C(C(=O)N(CCC)CCc2ccc(Oc3ccccc3)cc2)C1C(=O)O` (stereo not drawn) [Example 67, (1α,2β,3β,4α)-1,3-Di[N-propyl-N-(2-(4-phenoxyphenyl)ethyl)aminocarbonyl]cyclobutane-2,4-dicarboxylic acid], the values for the inhibition at 1 µM in assay [1] and in assay [2] were 47% and 61%, respectively.
With `COCCN(Cc1ccc(Oc2ccccc2)cc1)C(=O)C1C(C(=O)O)C(C(=O)N(CCOC)Cc2ccc(Oc3ccccc3)cc2)C1C(=O)O` (stereo not drawn) [Example 68, (1α,2β,3β,4α)-1,3-Di[N-(2-methoxyethyl)-N-(4-phenoxybenzyl)aminocarbonyl]cyclobutane-2,4-dicarboxylic acid], testing at 1 µM in assay [1] gave an inhibition of 52%. In addition, 10 µM produced 49% inhibition in assay [2].
For the compound `CSCCN(Cc1ccc(Oc2ccccc2)cc1)C(=O)C1C(C(=O)O)C(C(=O)N(CCSC)Cc2ccc(Oc3ccccc3)cc2)C1C(=O)O` (stereo not drawn) [Example 69, (1α,2β,3β,4α)-1,3-Di[N-(2-methylthioethyl)-N-(4-phenoxybenzyl)aminocarbonyl]cyclobutane-2,4-dicarboxylic acid], the inhibition at 1 µM in assay [1] came out at 23%; in assay [2], 31%.
As to `CCSCCN(Cc1ccc(Oc2ccccc2)cc1)C(=O)C1C(C(=O)O)C(C(=O)N(CCSCC)Cc2ccc(Oc3ccccc3)cc2)C1C(=O)O` (stereo not drawn) [Example 70, (1α,2β,3β,4α)-1,3-Di[N-(2-ethylthioethyl)-N-(4-phenoxybenzyl)aminocarbonyl]cyclobutane-2,4-dicarboxylic acid], in assay [1], testing at 1 µM gave an inhibition of 76%. Moreover, the inhibition at 10 µM in assay [2] stood at 77%.
For the compound `O=C(O)C1C(C(=O)N(CCSCc2ccccc2)Cc2ccc(Oc3ccccc3)cc2)C(C(=O)O)C1C(=O)N(CCSCc1ccccc1)Cc1ccc(Oc2ccccc2)cc1` (stereo not drawn) [Example 71, (1α,2β,3β,4α)-1,3-Di[N-(2-benzylthioethyl)-N-(4-phenoxybenzyl)aminocarbonyl]cyclobutane-2,4-dicarboxylic acid], the inhibition at 1 µM in assay [1] amounted to 25%; in assay [2], 32%.
In the case of `O=C(O)C1C(C(=O)N(Cc2ccc(Oc3ccccc3)cc2)Cc2ccco2)C(C(=O)O)C1C(=O)N(Cc1ccc(Oc2ccccc2)cc1)Cc1ccco1` (stereo not drawn) [Example 72, (1α,2β,3β,4α)-1,3-Di[N-(furan-2-ylmethyl)-N-(4-phenoxybenzyl)aminocarbonyl]cyclobutane-2,4-dicarboxylic acid], the inhibition at 1 µM in assay [1] is 32%; in assay [2], 82%.
Taken in the same sequence, the figures for `O=C(O)[C@H]1[C@H](C(=O)N(Cc2ccc(Oc3ccccc3)cc2)Cc2cccs2)[C@H](C(=O)O)[C@H]1C(=O)N(Cc1ccc(Oc2ccccc2)cc1)Cc1cccs1` [Example 73, (1α,2β,3β,4α)-1,3-Di[N-(thien-2-ylmethyl)-N-(4-phenoxybenzyl)aminocarbonyl]cyclobutane-2,4-dicarboxylic acid] were 24% and 92%.
In assay [1], `COc1cccc(CCN(Cc2ccc(Oc3ccccc3)cc2)C(=O)[C@H]2[C@H](C(=O)O)[C@H](C(=O)N(CCc3cccc(OC)c3)Cc3ccc(Oc4ccccc4)cc3)[C@H]2C(=O)O)c1` [Example 76, (1α,2β,3β,4α)-1,3-Di[N-(4-phenoxybenzyl)-N-(3-methoxyphenethyl)aminocarbonyl]cyclobutane-2,4-dicarboxylic acid] registered an inhibition at 1 µM of 23%. In assay [2], this compound showed an inhibition at 10 µM of 66%.
In the case of `COc1ccc(CCN(Cc2ccc(Oc3ccccc3)cc2)C(=O)[C@H]2[C@H](C(=O)O)[C@H](C(=O)N(CCc3ccc(OC)c(OC)c3)Cc3ccc(Oc4ccccc4)cc3)[C@H]2C(=O)O)cc1OC` [Example 77, (1α,2β,3β,4α)-1,3-Di [N-(4-phenoxybenzyl)-N-(3,4-dimethoxyphenethyl)aminocarbonyl]cyclobutane-2,4-dicarboxylic acid], in assay [1], the inhibition at 1 µM came out at 23%. In addition, the inhibition at 10 µM in assay [2] is 48%.
In assay [1], `O=C(O)[C@H]1[C@H](C(=O)N(CCc2ccccc2)Cc2ccc(Oc3ccccc3)cc2)[C@H](C(=O)O)[C@H]1C(=O)N(CCc1ccccc1)Cc1ccc(Oc2ccccc2)cc1` [Example 78, (1α,2β,3β,4α)-1,3-Di [N-(4-phenoxybenzyl)-N-phenethylaminocarbonyl]cyclobutane-2,4-dicarboxylicacid] registered an inhibition at 1 µM of 32%. Moreover, in assay [2], the inhibition at 10 µM was 83%.
In assay [1], `O=C(O)[C@H]1[C@H](C(=O)N(CCCc2ccccc2)Cc2ccc(Oc3ccccc3)cc2)[C@H](C(=O)O)[C@H]1C(=O)N(CCCc1ccccc1)Cc1ccc(Oc2ccccc2)cc1` [Example 79, (1α,2β,3β,4α)-1,3-Di [N-(4-phenoxybenzyl)-N-(3-phenyl-1-propyl)aminocarbonyl]cyclobutane-2,4-dicarboxylic acid] showed an inhibition at 1 µM of 54%. Also, in assay [2], testing at 10 µM gave an inhibition of 43%.
Compound `O=C(O)[C@H]1[C@H](C(=O)N(CCCCc2ccccc2)Cc2ccc(Oc3ccccc3)cc2)[C@H](C(=O)O)[C@H]1C(=O)N(CCCCc1ccccc1)Cc1ccc(Oc2ccccc2)cc1` [Example 80, (1α,2β,3β,4α)-1,3-Di [N-(4-phenoxybenzyl)-N-(4-phenyl-1-butyl)aminocarbonyl]cyclobutane-2,4-dicarboxylic acid] gave an inhibition at 1 µM in assay [1] of 42%. In assay [2], this compound yielded an inhibition at 10 µM of 51%.
On the same counts, the results for `C[C@@H](c1ccccc1)N(Cc1ccc(Oc2ccccc2)cc1)C(=O)[C@H]1[C@H](C(=O)O)[C@H](C(=O)N(Cc2ccc(Oc3ccccc3)cc2)[C@@H](C)c2ccccc2)[C@H]1C(=O)O` [Example 87, (1α,2β,3β,4α)-1,3-Di[N-(S)-α-Methylbenzyl-N-(4-phenoxybenzyl)aminocarbonyl]cyclobutane-2,4-dicarboxylic acid] are 76% and 86%.
In assay [1], `COc1ccc(CN(Cc2ccc(Oc3ccccc3)cc2)C(=O)[C@H]2[C@H](C(=O)O)[C@H](C(=O)N(Cc3ccc(OC)cc3)Cc3ccc(Oc4ccccc4)cc3)[C@H]2C(=O)O)cc1` [Example 89] showed an inhibition at 1 µM of 47%. In assay [2], this compound registered an inhibition at 10 µM of 50%.
On the same counts, the results for `O=C(O)[C@H]1[C@H](C(=O)N(Cc2ccc(Oc3ccccc3)cc2)CC2CCCCC2)[C@H](C(=O)O)[C@H]1C(=O)N(Cc1ccc(Oc2ccccc2)cc1)CC1CCCCC1` [Example 91] are 41% and 36%.
Turning to `O=C(O)[C@H]1[C@H](C(=O)N(Cc2ccc(Oc3ccccc3)cc2)CC2CC2)[C@H](C(=O)O)[C@H]1C(=O)N(Cc1ccc(Oc2ccccc2)cc1)CC1CC1` [Example 93, (1α,2β,3β,4α)-1,3-Di[N-Cyclopropylmethyl-N-(4-phenoxybenzyl)aminocarbonyl]cyclobutane-2,4-dicarboxylic acid], the inhibition at 1 µM in assay [1] is 52%. The compound further displayed an inhibition at 10 µM in assay [2] of 74%.
`O=C(O)[C@H]1[C@H](C(=O)N(Cc2ccc(F)cc2)Cc2ccc(Oc3ccccc3)cc2)[C@H](C(=O)O)[C@H]1C(=O)N(Cc1ccc(F)cc1)Cc1ccc(Oc2ccccc2)cc1` [Example 94, (1α,2β,3β,4α)-1,3-Di[N-(4-fluorobenzyl)-N-(4-phenoxybenzyl)aminocarbonyl]cyclobutane-2,4-dicarboxylic acid]: in assay [1], the inhibition at 1 µM is 20%. The compound also gave an inhibition at 10 µM in assay [2] of 99%.
